Assay results: publication PMC10583824, “The rational design of ARUK2007145, a dual inhibitor of the α and γ isoforms of the lipid kinase phosphatidylinositol 5-phosphate 4-kinase (PI5P4K)” (RSC Medicinal Chemistry, 2023)

Legend:
[1] = biological target: T1, PI5P4Kγ+ (Homo sapiens, UniProt Q8TBX8, D138G/D197E/E133P/E135D/E153T/E196G/G139A/N195G/S132L/S134N); experiment: biochemical
T1 sequence (Q8TBX8 with tags, fused parts or gaps INS131LPN/S132D/E133S/S134Q/E135A/G136R/D138G/G139A/E153T/N195G/E196G/D197E): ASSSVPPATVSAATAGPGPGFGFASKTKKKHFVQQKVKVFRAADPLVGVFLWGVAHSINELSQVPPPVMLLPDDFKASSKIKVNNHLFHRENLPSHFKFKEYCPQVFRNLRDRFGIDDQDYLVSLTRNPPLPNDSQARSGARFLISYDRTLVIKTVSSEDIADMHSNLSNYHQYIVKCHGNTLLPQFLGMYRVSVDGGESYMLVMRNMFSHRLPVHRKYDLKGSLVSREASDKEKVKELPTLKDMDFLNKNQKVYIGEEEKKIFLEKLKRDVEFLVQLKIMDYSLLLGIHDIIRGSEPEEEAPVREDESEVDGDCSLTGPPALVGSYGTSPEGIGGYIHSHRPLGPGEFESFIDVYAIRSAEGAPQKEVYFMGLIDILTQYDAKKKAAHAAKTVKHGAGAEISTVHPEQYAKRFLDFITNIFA

[2] = biological target: T2, PI5P4Kα (Homo sapiens, UniProt P48426); experiment: biochemical
T2 sequence (P48426 1-406): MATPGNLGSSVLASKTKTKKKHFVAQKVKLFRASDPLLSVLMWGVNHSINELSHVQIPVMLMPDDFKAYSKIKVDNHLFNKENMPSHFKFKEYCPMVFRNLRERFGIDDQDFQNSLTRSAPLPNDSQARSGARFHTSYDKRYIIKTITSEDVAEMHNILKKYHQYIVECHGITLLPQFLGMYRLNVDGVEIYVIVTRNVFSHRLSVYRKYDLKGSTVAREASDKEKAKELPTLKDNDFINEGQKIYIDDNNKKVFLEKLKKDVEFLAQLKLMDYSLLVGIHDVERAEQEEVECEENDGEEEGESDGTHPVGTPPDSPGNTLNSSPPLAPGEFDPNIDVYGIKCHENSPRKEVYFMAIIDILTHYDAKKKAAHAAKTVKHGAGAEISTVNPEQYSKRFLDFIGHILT

[3] = system: PI5P4Kγ+; settings: ratio PI5P4Kα IC50 / PI5P4Kγ+ IC50, ADP-Glo
[4] = biological target: T2, PI5P4Kα; settings: for PI5P4Kα pIC50: footnote a: inconsistent replicates, value shown is upper limit; for ADP-Glo pIC50 PI5P4Kα: Table S1, two decimals, asterisk not explained
[5] = ADP-Glo pIC50 PI5P4Kγ+, Table S1, two decimals, asterisk not explained
[6] = ADP-Glo pIC50 PI5P4Kα, Table S1, two decimals, asterisk not explained
[7] = PI5P4Kγ+ pIC50, ADP-Glo, footnote a: inconsistent replicates, value shown is upper limit

IC50 [1, 5] [µM] | IC50 [1, 7] [µM] | Fold-selectivity (α IC50/γ IC50) [3] | PI5P4Kα pIC50 ([4]; ADP-Glo) | ADP-Glo pIC50 PI5P4Kα [4] | IC50 ([2]; PI5P4Kα pIC50, ADP-Glo, footnote a: inconsistent replicates, value shown is upper limit) [µM] | PI5P4Kα inhibition (in words) ([4]; ADP-Glo) | Compound | IC50 [2, 6] [µM]
7.94 | – | – | – | – | – | – | Cc1cc(Cl)ccc1Nc1ncnc2sc(-c3cccnc3Cl)cc12 [Cc1cc(ccc1Nc1ncnc2sc(cc12)-c1cccnc1Cl)Cl] | 5.25
2.34 | – | – | – | – | – | – | Cc1cccc(Nc2ncnc3sc(-c4cccnc4Cl)cc23)c1 [Cc1cccc(c1)Nc1ncnc2sc(cc12)-c1cccnc1Cl] | 1.45
– | 12.6 | 0.032 | – | – | – | – | COc1ccc(-n2ncc3c(Nc4ccc(OC)c(Cl)c4)ncnc32)cc1 [Compound 4, reference compound] | –
0.0155 | 0.0158 | 79 | 5.9 | 5.88 | – | – | CS(=O)(=O)c1ccc(Nc2ncnc3sc(-c4cn[nH]c4)cc23)cc1 [Compound 7] | –
– | 0.1 | >250 | <4.6 | – | – | – | CS(=O)(=O)c1ccc(Nc2ncnc3sc(-c4ccncc4F)cc23)cc1 [Compound 12] | –
1.35 | 1.26 | 0.25 | 6.5 | 6.48 | – | – | Cc1ccc(Nc2ncnc3sc(-c4cccnc4C)cc23)cc1C [Compound 18] | –
4.37 | 3.98 | 0.79 | 5.5 | 5.48 | – | – | Cc1ccc(Nc2ncnc3sc(-c4cccnc4C)cc23)c(C)c1 [Compound 19] | –
1.91 | 2 | 0.69 | 5.9 | 5.88 | – | – | COc1ccc(Nc2ncnc3sc(-c4cccnc4C)cc23)cc1 [Compound 20] | –
1.55 | 1.58 | 0.4 | 6.2 | 6.22 | – | – | Cc1ccc(Nc2ncnc3sc(-c4cccnc4C)cc23)cc1 [Compound 22] | –
0.389 | 0.398 | 1.6 | 6.2 | 6.22 | – | – | CCc1ccc(Nc2ncnc3sc(-c4cccnc4C)cc23)cc1 [Compound 23] | –
0.11 | 0.1 | 2.5 | 6.6 | 6.62 | – | – | Cc1ncccc1-c1cc2c(Nc3ccc(C4CC4)cc3)ncnc2s1 [Compound 24] | –
0.0427 | 0.0398 | 6.0 | 6.6 | 6.59 | – | – | CSc1ccc(Nc2ncnc3sc(-c4cnoc4)cc23)cc1 [Compound 29] | –
0.0245 | 0.0251 | 6.3 | 6.8 | 6.81 | – | – | CSc1ccc(Nc2ncnc3sc(-c4c(C)noc4C)cc23)cc1 [Compound 30] | –
– | 0.0501 | – | <4.3 | – | – | undetectable | CS(=O)(=O)c1ccc(Nc2ncnc3ccsc23)cc1 [Compound 36] | –

More lines, now with the values behind:

Compound | IC50 [1, 5] [µM] | IC50 [1, 7] [µM] | Fold-selectivity (α IC50/γ IC50) [3] | PI5P4Kα pIC50 ([4]; ADP-Glo) | ADP-Glo pIC50 PI5P4Kα [4] | IC50 ([2]; PI5P4Kα pIC50, ADP-Glo, footnote a: inconsistent replicates, value shown is upper limit) [µM] | PI5P4Kα inhibition (in words) ([4]; ADP-Glo) | IC50 [2, 6] [µM]
CSc1ccc(Nc2ncnc3cc(-c4c(C)noc4C)sc23)cc1 [CSc1ccc(cc1)Nc1ncnc2cc(sc12)-c1c(noc1C)C] | 0.0324 | – | – | – | – | – | – | 0.0224
CSc1ccc(Nc2ncnc3cc(-c4cccnc4C)sc23)cc1 [CSc1ccc(cc1)Nc1ncnc2cc(sc12)-c1cccnc1C] | 0.017 | – | – | – | – | – | – | 0.0776
CSc1ccc(Nc2ncnc3sc(-c4cncnc4)cc23)cc1 [CSc1ccc(cc1)Nc1ncnc2sc(cc12)-c1cncnc1] | 0.0295 | – | – | – | – | – | – | 0.234
CSc1ccc(Nc2ncnc3sc(C)cc23)cc1 [CSc1ccc(cc1)Nc1ncnc2sc(cc12)C] | 0.178 | – | – | – | – | – | – | 2.34
Cc1cc2c(Nc3ccc(N4CCCC4=O)c(C)c3)ncnc2s1 [Cc1cc2c(ncnc2s1)Nc1ccc(c(c1)C)N1CCCC1=O] | 0.2 | – | – | – | – | – | – | 5.37
Cc1cc2c(Nc3ccc(Br)cc3)ncnc2s1 [Cc1cc2c(ncnc2s1)Nc1ccc(cc1)Br] | – | – | – | – | – | – | – | 6.92
Cc1cc(Nc2ncnc3sc(-c4cccnc4Cl)cc23)ccc1Cl [Cc1cc(ccc1Cl)Nc1ncnc2sc(cc12)-c1cccnc1Cl] | 0.389 | – | – | – | – | – | – | 2.95
Cc1ccc(Nc2ncnc3sc(-c4cccnc4Cl)cc23)cc1 [Cc1ccc(cc1)Nc1ncnc2sc(cc12)-c1cccnc1Cl] | 0.427 | – | – | – | – | – | – | 0.263
Cc1ccc(Nc2ncnc3sc(-c4cccnc4Cl)cc23)cc1C [Cc1ccc(cc1C)Nc1ncnc2sc(cc12)-c1cccnc1Cl] | 8.51 | – | – | – | – | – | – | 0.49
CS(=O)(=O)c1ccc(Nc2ncnc3sc(-c4cccnc4F)cc23)cc1 [Compound 16] | – | 0.0316 | 50 | – | – | ≥ 1.58 | – | 1.48
CS(=O)(=O)c1ccc(Nc2ncnc3scc(C4CC4)c23)cc1 [Compound 33] | – | 0.1 | – | <4.8 | – | – | – | –
